Data as given in PubChem BioAssay (NCI).
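48-hour exposure; five concentrations; linearly interpolated endpoints. TGI denotes the concentration required for complete inhibition of growth.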

Key:
Experiment in all cases: DTP human tumour cell line panel, 48 h
[1] = test system: SK-OV-3 ovarian
[2] = test system: U251 CNS
[3] = test system: SF-268 CNS
[4] = test system: OVCAR-8 ovarian
[5] = test system: UACC-257 melanoma
[6] = test system: EKVX NSCLC
[7] = test system: MDA-MB-231 breast
[8] = test system: SK-MEL-2 melanoma
[9] = test system: COLO 205 colon
[10] = test system: PC-3 prostate
[11] = test system: MCF7 breast
[12] = test system: ACHN renal
[13] = test system: NCI-H23 lung
[14] = test system: TK-10 renal
[15] = test system: SF-539 CNS
[16] = test system: 786-0 renal
[17] = test system: HCT-116 colon
[18] = test system: IGROV1 ovarian
[19] = test system: MOLT-4 leukemia
[20] = test system: HOP-92 NSCLC
[21] = test system: SW-620 colon
[22] = test system: OVCAR-5 ovarian
[23] = test system: RPMI-8226 leukemia
[24] = test system: SNB-75 CNS
[25] = test system: SK-MEL-28 melanoma
[26] = test system: SNB-19 CNS
[27] = test system: HOP-62 NSCLC
[28] = test system: T-47D breast
[29] = test system: SN12C renal
[30] = test system: HL-60(TB) leukemia
[31] = test system: M14 melanoma
[32] = test system: OVCAR-3 ovarian
[33] = test system: DU-145 prostate
[34] = test system: K-562 leukemia
[35] = test system: UACC-62 melanoma
[36] = test system: KM12 colon
[37] = test system: HCT-15 colon
[38] = test system: SK-MEL-5 melanoma
[39] = test system: SR leukemia
[40] = test system: A549 NSCLC
[41] = test system: MDA-MB-435
[42] = test system: NCI-H522 lung
[43] = test system: NCI-H226 lung
[44] = test system: BT-549 breast
[45] = test system: OVCAR-4 ovarian
[46] = test system: UO-31 renal
[47] = test system: HS 578T breast
[48] = test system: A498 renal
[49] = test system: CAKI-1 renal
[50] = test system: SF-295 CNS
[51] = test system: NCI-H460 lung
[52] = test system: NCI/ADR-RES ovarian
[53] = test system: HCC-2998 colon
[54] = test system: RXF 393 renal
[55] = test system: HT29 colon
[56] = test system: CCRF-CEM leukemia
[57] = test system: LOX IMVI melanoma

For O=C(Cc1ccccc1CCO)NCCc1ccccc1, the TGI [1] was > 100 µM, the TGI [2] was > 100 µM and the TGI [3] was > 100 µM. The TGI [4] was > 100 µM, the TGI [5] was > 100 µM and the TGI [6] was > 100 µM. The TGI [7] was > 100 µM, the TGI [8] was > 100 µM and the TGI [9] was > 100 µM. For the same molecule, the TGI [10] was > 100 µM, the TGI [11] was > 100 µM and the TGI [12] was > 100 µM. For the same molecule, the TGI [13] was > 100 µM, the TGI [14] was > 100 µM and the TGI [15] was > 100 µM. For the same molecule, the TGI [16] was > 100 µM, the TGI [17] was > 100 µM and the TGI [18] was > 100 µM. The TGI [19] was > 100 µM, the TGI [20] was > 100 µM and the TGI [21] was > 100 µM. For the same molecule, the TGI [22] was > 100 µM, the TGI [23] was > 100 µM and the TGI [24] was > 100 µM. The TGI [25] was > 100 µM, the TGI [26] was > 100 µM and the TGI [27] was > 100 µM. The TGI [28] was > 100 µM, the TGI [29] was > 100 µM and the TGI [30] was > 100 µM. For the same molecule, the TGI [31] was > 100 µM, the TGI [32] was > 100 µM and the TGI [33] was > 100 µM. The TGI [34] was > 100 µM, the TGI [35] was > 100 µM and the TGI [36] was > 100 µM. For the same molecule, the TGI [37] was > 100 µM, the TGI [38] was > 100 µM and the TGI [39] was > 100 µM. For the same molecule, the TGI [40] was > 100 µM, the TGI [41] was > 100 µM and the TGI [42] was > 100 µM. For the same molecule, the TGI [43] was > 100 µM, the TGI [44] was > 100 µM and the TGI [45] was > 100 µM. The TGI [46] was > 100 µM, the TGI [47] was > 100 µM and the TGI [48] was > 100 µM. The TGI [49] was > 100 µM, the TGI [50] was > 100 µM and the TGI [51] was > 100 µM. For the same molecule, the TGI [52] was > 100 µM, the TGI [53] was > 100 µM and the TGI [54] was > 100 µM. The TGI [55] was > 100 µM and the TGI [56] was > 100 µM.

For CC(C)(O)[C@@H]1CC[C@](C)(C2[C@@H](O)C[C@@]3(C)C4C[C@H](OC5OCC(O)C(O)C5O)[C@H]5C(C)(C)[C@@H](OC6OCC(O)C(O)C6OC6OCC(O)C(O)C6O)CC[C@@]56C[C@@]46CC[C@]23C)O1 (some centres undefined), the TGI [1] was > 100 µM, the TGI [2] was > 100 µM and the TGI [3] was > 100 µM. The TGI [4] was > 100 µM, the TGI [6] was > 100 µM and the TGI [7] was > 100 µM. The TGI [8] was > 100 µM, the TGI [9] was > 100 µM and the TGI [10] was > 100 µM. The TGI [11] was > 100 µM, the TGI [13] was > 100 µM and the TGI [15] was > 100 µM. The TGI [16] was > 100 µM, the TGI [17] was > 100 µM and the TGI [18] was > 100 µM. The TGI [19] was > 100 µM, the TGI [21] was > 100 µM and the TGI [22] was > 100 µM. The TGI [23] was > 100 µM, the TGI [24] was > 100 µM and the TGI [25] was > 100 µM. For the same molecule, the TGI [26] was > 100 µM, the TGI [27] was > 100 µM and the TGI [28] was > 100 µM. The TGI [29] was > 100 µM, the TGI [30] was > 100 µM and the TGI [31] was > 100 µM. For the same molecule, the TGI [32] was > 100 µM, the TGI [33] was > 100 µM and the TGI [34] was > 100 µM. The TGI [35] was > 100 µM, the TGI [36] was > 100 µM and the TGI [37] was > 100 µM. The TGI [38] was > 100 µM, the TGI [39] was > 100 µM and the TGI [40] was > 100 µM. The TGI [41] was > 100 µM, the TGI [42] was > 100 µM and the TGI [43] was > 100 µM. The TGI [44] was > 100 µM, the TGI [45] was > 100 µM and the TGI [46] was > 100 µM. For the same molecule, the TGI [47] was > 100 µM, the TGI [48] was > 100 µM and the TGI [49] was > 100 µM. For the same molecule, the TGI [50] was > 100 µM, the TGI [51] was > 100 µM and the TGI [52] was > 100 µM. The TGI [53] was > 100 µM, the TGI [54] was > 100 µM and the TGI [55] was > 100 µM. The TGI [56] was > 100 µM.

CCOC(=O)C(C)c1nc2cc3cccnc3c(Cl)c2[nH]c1=O (centres undefined) was tested, and the TGI [1] was > 100 µM, the TGI [2] was > 100 µM and the TGI [3] was > 100 µM. The TGI [4] was > 100 µM, the TGI [5] was > 100 µM and the TGI [6] was > 100 µM. For the same molecule, the TGI [7] was > 100 µM, the TGI [8] was > 100 µM and the TGI [9] was > 100 µM. The TGI [10] was > 100 µM, the TGI [11] was > 100 µM and the TGI [12] was > 100 µM. The TGI [13] was > 100 µM, the TGI [14] was > 100 µM and the TGI [15] was > 100 µM. For the same molecule, the TGI [16] was > 100 µM, the TGI [17] was > 100 µM and the TGI [18] was > 100 µM. For the same molecule, the TGI [20] was > 100 µM, the TGI [21] was > 100 µM and the TGI [23] was > 100 µM. For the same molecule, the TGI [24] was > 100 µM, the TGI [25] was > 100 µM and the TGI [26] was > 100 µM. The TGI [27] was > 100 µM, the TGI [28] was > 100 µM and the TGI [30] was > 100 µM. The TGI [31] was > 100 µM, the TGI [33] was 50 µM and the TGI [34] was > 100 µM. For the same molecule, the TGI [35] was > 100 µM, the TGI [36] was > 100 µM and the TGI [37] was > 100 µM. For the same molecule, the TGI [38] was > 100 µM, the TGI [39] was > 100 µM and the TGI [41] was > 100 µM. The TGI [43] was > 100 µM, the TGI [44] was > 100 µM and the TGI [45] was > 100 µM. The TGI [46] was > 100 µM, the TGI [47] was > 100 µM and the TGI [48] was > 100 µM. The TGI [49] was > 100 µM, the TGI [50] was > 100 µM and the TGI [57] was > 100 µM. The TGI [51] was > 100 µM, the TGI [52] was > 100 µM and the TGI [53] was > 100 µM. For the same molecule, the TGI [54] was > 100 µM, the TGI [55] was > 100 µM and the TGI [56] was > 100 µM.
